Test results as given in BindingDB's records for patent US20240043440 (Case Western Reserve University, 2024).

Each molecule was assayed against T1, 15-hydroxyprostaglandin dehydrogenase [NAD(+)] (Homo sapiens, UniProt P15428) (assay: In vitro Assay (5 nM)).
T1 sequence (P15428 whole entry): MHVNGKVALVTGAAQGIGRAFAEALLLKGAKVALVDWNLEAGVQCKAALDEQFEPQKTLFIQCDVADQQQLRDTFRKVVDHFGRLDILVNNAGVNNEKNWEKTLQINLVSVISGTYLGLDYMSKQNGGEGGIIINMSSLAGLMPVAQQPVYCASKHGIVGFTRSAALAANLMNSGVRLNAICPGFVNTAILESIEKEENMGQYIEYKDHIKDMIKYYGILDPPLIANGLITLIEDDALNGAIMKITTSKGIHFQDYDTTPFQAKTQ
Procedure: Each compound for inhibiting enzymatic activity of recombinant 15-PGDH (5 nM) in an in vitro assay.
An IC50 of 4 nM was found for `CCCC[S+]([O-])c1sc2nc(-c3ccc(F)nc3)cc(-c3ccccc3)c2c1N` (stereo not given) [US20240043440, Example 22] in this work.
An IC50 of 2.6 nM was found for `CCCC[S+]([O-])c1sc2nc(-c3nccs3)cc(-c3ncccn3)c2c1N` (stereo not given) [US20240043440, Example 8] in this work.
An IC50 of 4 nM was found for `CCCC[S+]([O-])c1sc2nc(-c3cnc(N)nc3)cc(-c3ccccc3)c2c1N` (stereo not given) [US20240043440, Example 21] in this work.
An IC50 of 1.4 nM was found for `CCCC[S@@+]([O-])c1sc2nc(-c3nccs3)cc(-c3nccn3CC)c2c1N` [US20240043440, Example 29] in this work.
An IC50 of 20 nM was found for `CCCC[S+]([O-])c1sc2nc(-c3nccs3)nc(-c3cccnc3)c2c1N` (stereo not given) [US20240043440, Example 26] in this work.
An IC50 of 221 nM was found for `CCCC[S@+]([O-])c1sc2nc(-c3nccs3)cc(-c3nccn3CC)c2c1N` [US20240043440, Example 30] in this work.
An IC50 of 3.2 nM was found for `CCCC[S+]([O-])c1sc2nc(-c3cncnc3)cc(-c3ccccc3)c2c1N` (stereo not given) [US20240043440, Example 20] in this work.
An IC50 of 24.7 nM was found for `CCCC[S+]([O-])c1cc2c(-c3ccccc3)cc(-c3cccs3)nc2s1` (stereo not given) [US20240043440, Example 11] in this work.
An IC50 of 2.4 nM was found for `CCCC[S+]([O-])c1sc2nc(-c3cccnc3)cc(-c3ccccc3)c2c1N` (stereo not given) [US20240043440, Example 19] in this work.
An IC50 of 7.1 nM was found for `CCCC[S+]([O-])c1sc2nc(-c3cccs3)cc(-c3ccccc3)c2c1C` (stereo not given) [US20240043440, Example 10] in this work.
An IC50 of 3 nM was found for `CCCC[S+]([O-])c1sc2nc(-c3cnn(C)c3)cc(-c3ccccc3)c2c1N` (stereo not given) [US20240043440, Example 24] in this work.
An IC50 of 1.4 nM was found for `CCCC[S+]([O-])c1sc2nc(-c3nccs3)cc(-c3cn(C)cn3)c2c1N` (stereo not given) [US20240043440, Example 28] in this work.
An IC50 of 1.6 nM was found for `CCCC[S+]([O-])c1sc2nc(-c3ccccc3)cnc2c1N` (stereo not given) [US20240043440, Example 27] in this work.
An IC50 of 2.7 nM was found for `CCCC[S+]([O-])c1sc2nc(-c3nccs3)cc(-c3cnccn3)c2c1N` (stereo not given) [US20240043440, Example 1] in this work.
An IC50 of 3.7 nM was found for `CCCC[S+]([O-])c1sc2nc(-c3nccs3)nc(-c3cnc(C)n3C)c2c1N` (stereo not given) [US20240043440, Example 15] in this work.

Each molecule was assayed against T1, 15-hydroxyprostaglandin dehydrogenase [NAD(+)] (assay: In vitro Assay (1 nM)).
Procedure: Each compound for inhibiting enzymatic activity of recombinant 15-PGDH (1 nM) in an in vitro assay.
An IC50 of 1 nM was found for `COCCC[S@@+]([O-])c1sc2nc(-c3cccnc3)nc(-c3ccccc3)c2c1N` [US20240043440, Example 78-A] in this work.
An IC50 of 1.8 nM was found for `CCOCC[S+]([O-])c1sc2nc(-c3nccs3)cc(-c3cncn3C)c2c1N` (stereo not given) [US20240043440, Example 31] in this work.
An IC50 of 1.5 nM was found for `COCC[S+]([O-])c1sc2nc(-c3nccs3)cc(-c3cncn3C)c2c1N` (stereo not given) [US20240043440, Example 36] in this work.
An IC50 of 1.1 nM was found for `CCCC[S+]([O-])c1sc2nc(-c3cccnc3)cc(-c3cccc(C#N)c3)c2c1N` (stereo not given) [US20240043440, Example 57] in this work.
An IC50 of 2.8 nM was found for `CCCC[S+]([O-])c1sc2nc(-c3cnn(C)c3)cnc2c1N` (stereo not given) [US20240043440, Example 75] in this work.
